Among the data in patent US5859042A, “Five membered heterocyclic compounds” (Ono Pharmaceutical Co., Ltd., priority 1997, dated 1999) are IC50 values, retold here.

What is called IC50 is the concentration that gives 50% inhibition. A low value points to greater potency in that assay.

One experiment addresses T1, 5α-reductase (Homo sapiens, UniProt P31213).
T1 construct: Frozen human prostates were thawed on ice and minced with scissors into small pieces; from tissue; host or cells: human prostate (frozen), washed 140,000×g membrane pellet
T1 sequence (P31213 1-254): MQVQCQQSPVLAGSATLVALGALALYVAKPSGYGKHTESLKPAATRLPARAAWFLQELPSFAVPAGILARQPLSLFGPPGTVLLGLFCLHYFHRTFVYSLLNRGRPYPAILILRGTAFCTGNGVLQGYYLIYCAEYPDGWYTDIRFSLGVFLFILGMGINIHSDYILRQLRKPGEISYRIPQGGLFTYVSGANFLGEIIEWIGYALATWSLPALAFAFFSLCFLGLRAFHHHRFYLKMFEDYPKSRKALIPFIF
Briefly: inhibitory activity on 5α-reductase from human prostates (conversion of 14C-testosterone to DHT). The experiment is classed as biochemical. As to conditions: human prostatic 5α-reductase, pH 5.0, 1 μM 14C-testosterone, 1 mM NADPH, 30 min at 37° C.; Table 1. The method, then:
(1) Preparation of 5α-reductase from human prostates
Frozen human prostates were thawed on ice and minced with scissors into small pieces (~1 mm^3). The minced tissue was homogenized in 3 tissue volumes of ice cold medium A (20 mM potassium phosphate, pH 6.5, containing 0.32M sucrose, 1 mM dithiothreitol, 50 μM NADPH, 1 mM EDTA), first with a Brinkmann Polytron and then with a Dounce homogenizer. The homogenate was filtered through gauze and the filtrate was centrifuged at 140,000×g at 4° C. for 60 min. The resulting pellet was washed with 3 tissue volumes of medium A. The washed pellet was suspended (5-10 mg protein/ml) in 20 mM potassium phosphate, pH 6.5, containing 20% glycerol, 50 μM NADPH and 1 mM dithiothreitol. An appropriate aliquot of this suspension was used as the source of 5α-reductase.
5α-reductase activity was determined by following the conversion of testosterone to 5α-dihydrotestosterone (DHT). In brief, buffer (100 mM Tris-citrate, pH5.0), 1 mM NADPH and human prostatic 5α-reductase(0.4-1 mg protein) were placed in test tubes. After addition of test compounds (dissolved in 5 μl in DMSO or EtOH) or solvents to the tubes, the solutions were preincubated at room temperature for 10 min. The reactions were initiated by addition of 1 μM ^14 C-testosterone to a final volume of 0.5 ml. Following 30 min incubation at 37° C., the reactions were stopped by addition of 5 ml dichloromethane. After centrifugation at 1000 rpm for 5 min, the organic phase (bottom) was collected and the volume reduced to ~100 μl in a 42° C. water bath. The solutions were applied to silica plates and the plates were developed in chloroform/ethyl acetate (3:1) at room temperature. The radioactivity profiles were determined by a BIOSCAN imaging scanner. The silica in sections identified by BIOSCAN and counted in a scintillation counter. Enzyme activity was calculated from the percent of recovered radio label converted to the product DHT.
As to `Cn1c(CC(=O)O)ccc1C(=O)c1ccc(CSc2ccccc2)cc1` [Example 3(41)], the half-maximal inhibitory concentration (IC50) was found to be 98 nM.

In turn, `Cn1c(CC(=O)O)ccc1C(=O)c1ccc(-c2cc(Cl)cc(Cl)c2)cc1` [Example 3(82)] yielded an IC50 of 630 nM.

`Cc1cc(OCc2ccccc2)ccc1C(=O)c1ccc(CC(=O)O)n1C` [Example 3(16)] yielded an IC50 of 170 nM. Still for that read-out and setting: then `CCc1ccc(-c2ccc(C(=O)c3ccc(CC(=O)O)n3C)cc2)cc1` [Example 2], with 24 nM; and `Cn1c(CC(=O)O)ccc1C(=O)c1ccc(-n2cccc2)cc1` [Example 3(50)], with 160 nM; and `Cn1c(CC(=O)O)ccc1C(=O)c1ccc(C2CCCCC2)cc1` [Example 3(1)], with 20 nM. `Cn1c(CC(=O)O)ccc1C(=O)c1ccc(-c2cccs2)cc1` [Example 3(54)] showed an IC50 of 23 nM. `O=C(O)Cc1ccc(C(=O)c2ccc(-c3ccccc3)cc2)s1` [Example 3(18)] displayed an IC50 of 450 nM. This IC50 lies about 20-fold higher than the previous one.

Regarding `Cc1cc(C(=O)c2ccc(CC(=O)O)n2C)ccc1-c1ccccc1` [Example 3(83)], the IC50 came to 92 nM. Molecule `Cn1c(CC(=O)O)ccc1C(=O)c1ccc(-c2ccc(F)cc2)cc1` [Example 3(62)] registered a 50% inhibitory concentration (IC50) of 41 nM. Consider `Cn1c(CC(=O)O)ccc1C(=O)c1ccc(-c2ccc(Br)s2)cc1` [Example 3(55)], for which the IC50 stood at 24 nM. In turn, `Cn1c(CC(=O)O)ccc1C(=O)c1ccc(C(=O)c2ccccc2)cc1` [Example 3(5)] registered an IC50 of 210 nM. `Cn1c(CC(=O)O)ccc1C(=O)CCCCc1ccccc1` [Example 3(22)] returned an IC50 of 840 nM. On to `Cn1c(CC(=O)O)ccc1C(=O)c1ccc(OCc2ccccc2)cc1` [Example 3(8)], for which the 50% inhibitory concentration (IC50) came to 24 nM. `Cn1c(CC(=O)O)ccc1C(=O)c1ccc2c(c1)C(=O)c1ccccc1-2` [Example 3(20)] returned an IC50 of 130 nM. `Cn1c(C(=O)O)ccc1C(=O)c1ccc(-c2ccccc2)cc1` [Example 3(70)] came in with an IC50 of 170 nM. Turning to `Cn1c(CC(=O)O)ccc1C(=O)c1ccc(-c2ccccc2)cc1` [Example 3(2)], the 50% inhibitory concentration (IC50) worked out at 19 nM.

`Cn1c(CC(=O)O)ccc1C(=O)c1ccc(/C=C/c2ccccc2)cc1` [Example 3(47)] yielded an IC50 of 56 nM. Against the preceding molecule, the IC50 is about 2.9-fold higher.

Molecule `Cn1c(CC(=O)O)ccc1C(=O)C1CCC(c2ccccc2)CC1` (stereo not drawn) [Example 3(77)] displayed a concentration for half-maximal inhibition (IC50) of 250 nM.

The experiment is the same for the next values; noted with them: human prostatic 5α-reductase, pH 5.0, 1 μM 14C-testosterone, 1 mM NADPH, 30 min at 37° C.; Table 2.
In the case of `CC(C)Cc1ccc(C(=O)c2ccc(CC(=O)O)n2C)cc1` [isobutyl], the IC50 amounted to 74 nM. Regarding `Cn1c(CC(=O)O)ccc1C(=O)c1ccc(I)cc1` [iodo], the IC50 came to 440 nM. Molecule `CCCCCCOc1ccc(C(=O)c2ccc(CC(=O)O)n2C)cc1` [hexyloxy] showed an IC50 of 170 nM. On to `Cc1ccc(C(=O)c2ccc(CC(=O)O)n2C)cc1` [methyl], for which the IC50 was determined as 8000 nM. The molecule `Cn1c(CC(=O)O)ccc1C(=O)c1ccc(C(C)(C)C)cc1` [t-butyl] registered an IC50 of 400 nM. This IC50 is about 20-fold lower than that of the molecule before.
